From patent US20170000129A1, “METHOD FOR TREATING MINERAL SLURRIES WITH A BIOCIDE” (priority 2015, published 2017)

Experiments:
[1] = tested on: bacterial growth in kaolin slurry; assay: Kaolin slurry preservation test: biocide-dosed 65% solids slurry plated on standard method agar, samples as treated; format: cell-based, bacteria; conditions: for biocide efficacy compared with known biocides: Table 2, up to 28 days
Procedure: (§1) In the comparative testing, dry kaolin was mixed with water to achieve a 65% solid slurry material. This material contained no biocide. The slurry was then split into 200 gram aliquots and dosed with different biocides at different concentration as shown in Tables 1-3. All samples were kept at 50° C. until the end of the testing, which was up to 28 days.
A number of different and known biocides were used in the study and they include glutaraldehyde (glute), 1,2 benzithiazolin-3-one (BIT), tetrahydro-3-5-methyl-2H-1,3,5-thiadizine-2-thione (thione), isothiazoline (ISO), bronopol (BNPD) or orthophenyl phenate (OPP). For shorthand purposes, the study refers to the tradename of the biocide, which is found in the above listing of the biocides. Metam sodium is designated as SMDC and MDTCMA is used without change
(§2) The protocol for the testing of each sample is as follows: • 1) dosed with a recorded level of biocide; • 2) mixed for 24 hours contact time and plated using standard method agar for bacterial growth; • 3) remixed daily for 1 hour and retested for bacterial growth at Day 3; • 4) remixed daily for 1 hour and retested for bacterial growth at Day 7; • 5) remixed daily for 1 hour and retested for bacterial growth at Day 14; • 6) on day 20, samples were split into two containers: one container was inoculated (or challenged) with ˜10^5 cfu/ml bacteria, the other was left “as treated”, the challenge material was obtained from a contaminated kaolin product and is assumed to be representative of the types of bacteria that are seen in the kaolin industry, and the two sets of samples were prepared for Day 21 testing; • 7) both sets were remixed daily for 1 hour and retested for bacterial growth at Day 21; and • 8) both sets remixed daily for 1 hour and retested for bacterial growth at Day 28.
Different contact times were used to see how quickly the bacterial population was effected by the biocide.

[2] = tested on: bacteria from a contaminated kaolin product; assay: Kaolin slurry preservation test, challenge: on day 20 samples inoculated with ~10^5 cfu/ml bacteria from a contaminated kaolin product; format: cell-based
Procedure: as §1, §2

Compound: CNC(=S)[S-].[Na+] [42% SMDC, sodium N-methyldithiocarbamate]
- Log Red, contact time 1 day ([1]; 500 ppm, Table 1): 0
- Log Red, contact time 3 day ([1]; 500 ppm, Table 1): 1
- Log Red, contact time 7 day ([1]; 500 ppm, Table 1): 3
- cfu/mL, contact time 1 day ([1]; 500 ppm, Table 1): 24,340,000 cfu/mL
- cfu/mL, contact time 3 day ([1]; 500 ppm, Table 1): 2,600,000 cfu/mL
- cfu/mL, contact time 7 day ([1]; 500 ppm, Table 1): 30,000 cfu/mL
- performance against the BIT biocide when measuring log reduction ([1]; 500 ppm, Table 1): performed at least as well as the BIT biocide
- Log Red, contact time 1 day ([1]; 500 ppm, Table 2): 0
- Log Red, contact time 3 day ([1]; 500 ppm, Table 2): 2
- Log Red, contact time 7 day ([1]; 500 ppm, Table 2): 4
- Log Red, contact time 14 day ([1]; 500 ppm, Table 2): 4
- Log Red, contact time 21 day ([1]; 500 ppm, Table 2): 5
- Log Red, contact time 28 day ([1]; 500 ppm, Table 2): 4
- cfu/mL, contact time 1 day ([1]; 500 ppm, Table 2): 19,630,000 cfu/mL
- cfu/mL, contact time 3 day ([1]; 500 ppm, Table 2): 780,002 cfu/mL
- cfu/mL, contact time 7 day ([1]; 500 ppm, Table 2): 4,000 cfu/mL
- cfu/mL, contact time 14 day ([1]; 500 ppm, Table 2): 3,000 cfu/mL
- cfu/mL, contact time 21 day ([1]; 500 ppm, Table 2): 1,800 cfu/mL
- cfu/mL, contact time 28 day ([1]; 500 ppm, Table 2): 1,800 cfu/mL
- Log Red, contact time 1 day ([1]; 1000 ppm, Table 1): 0
- Log Red, contact time 3 day ([1]; 1000 ppm, Table 1): 1
- Log Red, contact time 7 day ([1]; 1000 ppm, Table 1): 5
- cfu/mL, contact time 1 day ([1]; 1000 ppm, Table 1): 16,880,000 cfu/mL
- cfu/mL, contact time 3 day ([1]; 1000 ppm, Table 1): 2,200,000 cfu/mL
- cfu/mL, contact time 7 day ([1]; 1000 ppm, Table 1): 1,000 cfu/mL
- performance against the BIT biocide when measuring log reduction ([1]; 1000 ppm, Table 1): far superior
- Log Red, contact time 1 day ([1]; 1000 ppm, Table 2): 0
- Log Red, contact time 3 day ([1]; 1000 ppm, Table 2): 4
- Log Red, contact time 7 day ([1]; 1000 ppm, Table 2): 4
- Log Red, contact time 14 day ([1]; 1000 ppm, Table 2): 4
- Log Red, contact time 21 day ([1]; 1000 ppm, Table 2): 5
- Log Red, contact time 28 day ([1]; 1000 ppm, Table 2): 4
- cfu/mL, contact time 1 day ([1]; 1000 ppm, Table 2): 12,560,000 cfu/mL
- cfu/mL, contact time 3 day ([1]; 1000 ppm, Table 2): 4,800 cfu/mL
- cfu/mL, contact time 7 day ([1]; 1000 ppm, Table 2): 2,400 cfu/mL
- cfu/mL, contact time 14 day ([1]; 1000 ppm, Table 2): 2,600 cfu/mL
- cfu/mL, contact time 21 day ([1]; 1000 ppm, Table 2): 900 cfu/mL
- cfu/mL, contact time 28 day ([1]; 1000 ppm, Table 2): 900 cfu/mL
- Log Red, contact time 1 day ([1]; 1000 ppm, Table 3): 3
- Log Red, contact time 3 day ([1]; 1000 ppm, Table 3): 2
- Log Red, contact time 7 day ([1]; 1000 ppm, Table 3): 2
- Log Red, contact time 14 day ([1]; 1000 ppm, Table 3): 3
- Log Red, contact time 21 day ([1]; 1000 ppm, Table 3): 2
- Log Red, contact time 28 day ([1]; 1000 ppm, Table 3): 2
- cfu/mL, contact time 1 day ([1]; 1000 ppm, Table 3): 200 cfu/mL
- cfu/mL, contact time 3 day ([1]; 1000 ppm, Table 3): 100 cfu/mL
- cfu/mL, contact time 7 day ([1]; 1000 ppm, Table 3): 100 cfu/mL
- cfu/mL, contact time 14 day ([1]; 1000 ppm, Table 3): 100 cfu/mL
- cfu/mL, contact time 21 day ([1]; 1000 ppm, Table 3): 100 cfu/mL
- cfu/mL, contact time 28 day ([1]; 1000 ppm, Table 3): 100 cfu/mL
- Log Red, contact time 1 day ([1]; 1500 ppm, Table 3): 3
- Log Red, contact time 3 day ([1]; 1500 ppm, Table 3): 2
- Log Red, contact time 7 day ([1]; 1500 ppm, Table 3): 2
- Log Red, contact time 14 day ([1]; 1500 ppm, Table 3): 3
- Log Red, contact time 21 day ([1]; 1500 ppm, Table 3): 2
- Log Red, contact time 28 day ([1]; 1500 ppm, Table 3): 2
- cfu/mL, contact time 1 day ([1]; 1500 ppm, Table 3): 100 cfu/mL
- cfu/mL, contact time 3 day ([1]; 1500 ppm, Table 3): 100 cfu/mL
- cfu/mL, contact time 7 day ([1]; 1500 ppm, Table 3): 100 cfu/mL
- cfu/mL, contact time 14 day ([1]; 1500 ppm, Table 3): 100 cfu/mL
- cfu/mL, contact time 21 day ([1]; 1500 ppm, Table 3): 100 cfu/mL
- cfu/mL, contact time 28 day ([1]; 1500 ppm, Table 3): 100 cfu/mL
- biocide efficacy compared with known biocides [1]: comparable biocide efficacy as compared to known biocides
- biocide effectiveness compared with thione ([1]; Table 3, up to the 28 day testing, not challenge testing, 1000 and 1500 ppm): performed on a par with the thione
- Log Red, 21 day Challenge ([2]; 500 ppm, Table 2): 3
- Log Red, 28 day Challenge ([2]; 500 ppm, Table 2): 3
- cfu/mL, 21 day Challenge ([2]; 500 ppm, Table 2): 105,000 cfu/mL
- cfu/mL, 28 day Challenge ([2]; 500 ppm, Table 2): 16,000 cfu/mL
- Log Red, 21 day Challenge ([2]; 1000 ppm, Table 2): 3
- Log Red, 28 day Challenge ([2]; 1000 ppm, Table 2): 3
- cfu/mL, 21 day Challenge ([2]; 1000 ppm, Table 2): 59,000 cfu/mL
- cfu/mL, 28 day Challenge ([2]; 1000 ppm, Table 2): 16,000 cfu/mL
- Log Red, 21 day Challenge ([2]; 1000 ppm, Table 3): 2
- Log Red, 28 day Challenge ([2]; 1000 ppm, Table 3): 1
- cfu/mL, 21 day Challenge ([2]; 1000 ppm, Table 3): 384,000 cfu/mL
- cfu/mL, 28 day Challenge ([2]; 1000 ppm, Table 3): 3,000,000 cfu/mL
- Log Red, 21 day Challenge ([2]; 1500 ppm, Table 3): 5
- Log Red, 28 day Challenge ([2]; 1500 ppm, Table 3): 5
- cfu/mL, 21 day Challenge ([2]; 1500 ppm, Table 3): 100 cfu/mL
- cfu/mL, 28 day Challenge ([2]; 1500 ppm, Table 3): 100 cfu/mL
- biocide effectiveness in challenge testing ([2]; Table 3, challenge testing): comparable to thione
- biocide effectiveness after inoculation, overall result of the studies ([2]; after inoculation): most effective biocides

Compound: O=CCCCC=O [50% Glute, glutaraldehyde, reference compound]
- Log Red, contact time 1 day ([1]; 400 ppm, Table 2): 5
- Log Red, contact time 3 day ([1]; 400 ppm, Table 2): 5
- Log Red, contact time 7 day ([1]; 400 ppm, Table 2): 6
- Log Red, contact time 14 day ([1]; 400 ppm, Table 2): 6
- Log Red, contact time 21 day ([1]; 400 ppm, Table 2): 6
- Log Red, contact time 28 day ([1]; 400 ppm, Table 2): 5
- cfu/mL, contact time 1 day ([1]; 400 ppm, Table 2): 100 cfu/mL
- cfu/mL, contact time 3 day ([1]; 400 ppm, Table 2): 100 cfu/mL
- cfu/mL, contact time 7 day ([1]; 400 ppm, Table 2): 100 cfu/mL
- cfu/mL, contact time 14 day ([1]; 400 ppm, Table 2): 100 cfu/mL
- cfu/mL, contact time 21 day ([1]; 400 ppm, Table 2): 100 cfu/mL
- cfu/mL, contact time 28 day ([1]; 400 ppm, Table 2): 100 cfu/mL
- biocide efficacy compared with known biocides [1]: best performer
- Log Red, 21 day Challenge ([2]; 400 ppm, Table 2): 6
- Log Red, 28 day Challenge ([2]; 400 ppm, Table 2): 5
- cfu/mL, 21 day Challenge ([2]; 400 ppm, Table 2): 100 cfu/mL
- cfu/mL, 28 day Challenge ([2]; 400 ppm, Table 2): 100 cfu/mL
